pIC50: −log10 of the molar value. Like-named read-outs stand apart in the source and are kept apart here.
Experiments:
[1] = system: rat brain slices; conditions: cited from earlier work
[2] = system: isolated rat hearts; conditions: compound alone, cited from earlier work
[3] = system: dog hearts; conditions: cited from earlier work
[4] = system: guinea pig brain slices; conditions: cited from earlier work
[5] = background; cited from earlier work
[6] = system: mice; conditions: cited from earlier work; for general flaccidity and spontaneous locomotor activity: interpreted to be skeletal muscle relaxation
[7] = Oral bioavailability in dogs; type: in vivo, female beagle dogs; conditions: dog, 10 mg/kg oral versus iv, dose-corrected AUC to infinity, PEG-400
Procedure: Oral bioavailability was determined by comparing the dose corrected areas under the plasma-concentration time curve (AUC) to infinity for the each tested compound, given orally and intravenously in dogs. […] One dog received this solution at an infusion rate of 0.1 mL/min for 20 minutes. The other dog received a 0.2 mL/in infusion for 10 minutes. […] The plasma was separated within 10 minutes of blood collection and was stored frozen. The plasma concentration of compound was then determined for these IV infusions. […] The plasma concentration of compound was determined for this oral administration. The samples were assayed for intact adenosine kinase inhibitor by high performance liquid chromatography (HPLC). An internal standard was added to each test sample and standard sample. Each was then extracted with 10 volumes of 1% v/v dimethylsulfoxide in acetonitrile. […] The dried residue was reconstituted in mobile phase and the contents were analyzed for the adenosine kinase inhibitor (AKI) on HPLC. […] Pharmacokinetic parameters were calculated from the plasma concentration vs. time data, using standard non-compartmental methods. […] (1983).

[8] = system: formalin-induced pain in rats; assay: Analgesic activity, formalin paw model; type: in vivo; conditions: rat, oral, 20 mg/kg; for % Inhibition Phase 1 Composite score: Phase 1 (1.7-5 min post-formalin); for % Inhibition Phase 2 Composite score: Phase 2 (10.3-30 min post-formalin); for % Inhibition Phase 2 Licking/biting: Phase 2, licking/biting incidences
Description: Pharmacol. Exper. Ther., 250:3, 915-922 (1989). See also, Life Sciences 51:171-76 (1992). These models measure pain avoidance and tolerance in response to a regulated stimulus, and compare the response of animals before and after they are given test compound. Formalin Paw Assay In this assay, injection of formalin, an irritant, into the hindpaw of rats typically evokes a biphasic response of pain-related behaviors. […] Phase I behavior is thought to be a direct effect of the irritant on nociceptors at the injection site while phase 2 behavior is thought to include a hyperalgesic component mediated by sensitization of neuronal elements within the spinal cord. Studies from other laboratories have found the first portion of Phase 2 (sometimes referred to as Phase 2a) to be most responsive to pharmacological manipulation. Rats (male, Simonsen) weighing between 100-200 g, are used in the present experiments. For screening purposes drugs are administered orally 90 min prior to initiation of formalin test. […] The rat is then immediately placed in a separate plexiglass box and scoring (described below) of the animal's behavior is begun at 1.7 min after formalin injection. […] This sequence is repeated over a 30 min period. […] Scores are continuously recorded directly onto an Excel spreadsheet.

[9] = target: adenosine kinase; assay: AK inhibition (adenosine kinase activity, [U-14C] adenosine); type: biochemical, partially purified pig heart or recombinant human; conditions: 0.5 μM adenosine, 1 mM ATP, pH 7.0, 20 min; pig heart or recombinant human enzyme
Procedure: Adenosine kinase activity was measured essentially as described by Yamada et al. Biochim. Biophys. Acta 660, 3643 (1988) with a few minor modifications. Assay mixtures contained 50 mM TRIS-maleate buffer, pH 7.0, 0.1% BSA, 1 mM ATP 1 mM MgCl2, 0.5 μM [U-^14 C] adenosine (400-600 mCi/mmol) and varying duplicate concentrations of inhibitor. […] The amount of ^14 C-AMP was quantified by scintillation counting.

[10] = system: hot plate pain response in male SA rats; assay: Analgesic activity, hot plate; type: in vivo; conditions: rat, po
Description: Ther., 250:3, 915-922 (1989). See also, Life Sciences 51:171-76 (1992). These models measure pain avoidance and tolerance in response to a regulated stimulus, and compare the response of animals before and after they are given test compound.

[11] = system: carrageenan paw swelling in rats; assay: Anti-inflammatory activity, carrageenan paw swelling; type: in vivo; conditions: rat, swelling after 3 hours; for Carrageenan Paw (% inh) ip: 10 mg/kg ip, 30 min before carrageenan; for Carrageenan Paw (% inh) po: 10 mg/kg po, 1 h before carrageenan
[12] = system: maximal electroshock seizures (hind limb tonic extension) in male SA rats; assay: Anticonvulsant activity, maximal electroshock (MES) model; type: in vivo; conditions: rat
[13] = system: rat cardiomyocytes; conditions: cited from earlier work
[14] = system: isolated guinea pig hearts; conditions: without ADA inhibition; cited from earlier work
[15] = background; hence potentially short half life; cited from earlier work
[16] = ip, ">5" = HTE inhibited in fewer than 50% of animals at 5 mg/kg screen, ">>" (written >) = no activity, "<" = maximal activity at stated dose, read-out: Anticonvulsant ED50 (MES) ip
[17] = po, fasted overnight, ">>" (written >) = no activity at stated dose, read-out: Anticonvulsant ED50 (MES) po

Nc1ncnc2c1c(I)cn2[C@@H]1O[C@H](CO)[C@@H](O)[C@H]1O [5-iodotubercidin]
adenosine uptake, rat brain slices [1]: adenosine uptake was reportedly inhibited
perfusate adenosine concentration, hypoxic, anoxic or ischemic ([2]; hypoxic, anoxic or ischemic conditions): no increase in perfusate adenosine concentration
perfusate adenosine concentration, normoxic ([2]; normoxic conditions): no increase in perfusate adenosine concentration
effects in dog heart ischemia and reperfusion [3]: inconsistent effects
adenosine uptake, guinea pig brain slices [4]: adenosine uptake was reportedly inhibited
cytotoxicity [5]: cytotoxicity of 5-iodotubercidin
body temperature (hypothermia) [6]: hypothermia
general flaccidity and spontaneous locomotor activity [6]: pronounced general flaccidity and much-reduced spontaneous locomotor activity

C[C@H]1O[C@@H](n2cc(-c3ccc(F)cc3)c3c(Nc4ccc(F)cc4)ncnc32)[C@H](O)[C@@H]1O [compound 2]
% Oral Availability [7]: 47%

C[C@H]1O[C@@H](n2cc(-c3ccccc3)c3c(Nc4ccc(F)cc4)ncnc32)[C@H](O)[C@@H]1O [compound 1]
% Inhibition Phase 1 Composite score [8]: 7.4%
% Inhibition Phase 2 Composite score [8]: 33.3%
% Inhibition Phase 2 Licking/biting [8]: 59%
pIC50 [9]: 7.96
ED50 [10]: 16.6 mg/kg
Carrageenan Paw (% inh) ip [11]: 3.5 % inh
Carrageenan Paw (% inh) po [11]: 0.2 % inh

C[C@H]1O[C@@H](n2cc(-c3ccccc3)c3c(Nc4ccc(N)cc4)ncnc32)[C@H](O)[C@@H]1O [compound 43]
pIC50 [9]: 8.52
ED50 [12, 16]: 5 mg/kg

C[C@H]1O[C@@H](n2cc(I)c3c(N)ncnc32)[C@H](O)[C@@H]1O [5'-deoxy-5-iodotubercidin]
adenosine uptake, rat brain slices [1]: adenosine uptake was reportedly inhibited
adenosine uptake, guinea pig brain slices [4]: adenosine uptake was reportedly inhibited
body temperature (hypothermia) [6]: hypothermia
general flaccidity and spontaneous locomotor activity [6]: pronounced general flaccidity and much-reduced spontaneous locomotor activity

C[C@H]1O[C@@H](n2cc(-c3ccccc3)c3c(Nc4ccc(S(N)(=O)=O)cc4)ncnc32)[C@H](O)[C@@H]1O [compound 34]
pIC50 [9]: 8.30
ED50 [12, 17]: > 10 mg/kg
Carrageenan Paw (% inh) ip [11]: 1.7 % inh
Carrageenan Paw (% inh) po [11]: 0 % inh

OC[C@H]1O[C@@H](n2cnc3c2N=CNC[C@H]3O)C[C@@H]1O [2'-deoxycoformycin]
effect on adenosine release from the cells ([13]; adenosine deaminase inhibition): no effect on adenosine release from the cells

CC(=O)Nc1ccc(Nc2ncnc3c2c(-c2ccccc2)cn3[C@@H]2O[C@H](C)[C@@H](O)[C@H]2O)cc1 [compound 32]
% Inhibition Phase 1 Composite score [8]: 0%
% Inhibition Phase 2 Composite score [8]: 30.9%
% Inhibition Phase 2 Licking/biting [8]: 56%
pIC50 [9]: 9.30
ED50 [12, 17]: > 10 mg/kg

NC[C@H]1O[C@@H](n2cnc3c(N)ncnc32)[C@H](O)[C@@H]1O [5'-amino-5'-deoxyadenosine]
adenosine release in the absence of ADA inhibition [14]: These effects were not apparent in the absence of ADA inhibition
increase in adenosine release ([13]; together with ADA inhibition): 6 fold
susceptibility to deamination [15]: susceptibility of 5'-amino-5'-deoxyadenosine to deamination

C[C@H]1O[C@@H](n2cc(-c3ccc(CO)cc3)c3c(Nc4ccccc4)ncnc32)[C@H](O)[C@@H]1O [compound 130]
pIC50 [9]: 8.22
ED50 [12, 16]: > 5 mg/kg
Carrageenan Paw (% inh) ip [11]: 0.0 % inh
Carrageenan Paw (% inh) po [11]: 3.9 % inh

CCOC(=O)Cc1ccc(Nc2ncnc3c2c(-c2ccccc2)cn3[C@@H]2O[C@H](C)[C@@H](O)[C@H]2O)cc1 [compound 127]
pIC50 [9]: 8.70
ED50 [12, 16]: 5 mg/kg
Carrageenan Paw (% inh) ip [11]: 5.4 % inh
Carrageenan Paw (% inh) po [11]: 2.9 % inh
